Assay in all cases: inhibition of tumour cell growth, NCI panel, 48 h
For experiment [1], the system named is SF-268 CNS.
For experiment [2], the system named is COLO 205 colon.
For experiment [3], the system named is OVCAR-5 ovarian.
Experiment [4] concerns OVCAR-8 ovarian.
Experiment [5] concerns HCC-2998 colon.
Experiment [6] has as its system MDA-MB-435.
Experiment [7] relates to HCT-15 colon.
Experiment [8] deals with HL-60(TB) leukemia.
Experiment [9] has as its system EKVX NSCLC.
The subject of experiment [10] is M14 melanoma.

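Where inhibition never reached the appropriate level, the endpoint shown equals the highest concentration tested. Otherwise, values were interpolated linearly from a five-concentration, 48-hour dose response in 96-well plates. GI50 is the concentration that inhibits growth by half. TGI marks complete inhibition of growth.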

Take `Cn1c(=O)n(C)c2cc(CNCCNc3ccnc4cc(Cl)ccc34)ccc21`: the GI50 in [1] was 29.4 µM; in experiment [2], 17.2 µM; in [3] it was 20.3 µM; in [4] it was 38.2 µM; in experiment [5] it was 20.2 µM; in [6], 15.8 µM. Also, the results for the GI50 in experiment [7] and in experiment [8] were 31 µM and 25.1 µM, respectively. In addition, the TGI in experiment [1] was greater than 100 µM; in [2] it was 35.8 µM; in [3], 65.4 µM; in experiment [4], greater than 100 µM; in experiment [5], 52.9 µM; in experiment [6] it was 31.9 µM. The TGI in experiment [7] is greater than 100 µM; in experiment [8] it was 91.2 µM.

For `CCOC(=O)c1sc(-c2ccc(OS(=O)(=O)C[C@]34CCC(CC3=O)C4(C)C)c(C=O)c2)nc1C`, the GI50 in experiment [1] is 0.954 µM; in experiment [9] it was 1.3 µM; in experiment [2] it was 1.07 µM; in experiment [3], 0.97 µM; in experiment [4] it was 1.53 µM; in experiment [10] it was 1.09 µM. In addition, the GI50 in experiment [6] is 1.06 µM; in experiment [7], 0.761 µM; in experiment [8], 1.27 µM. Further, the TGI in experiment [1] is 2.47 µM; in [9], greater than 50 µM; in experiment [2], 2.62 µM; in [3] it was 2.68 µM; in experiment [4] it was greater than 50 µM; in experiment [10], 2.45 µM. Besides, the TGI in experiment [6] stood at 2.76 µM; in experiment [7] it was 1.69 µM; in experiment [8], 3.29 µM.

Consider `CC(C)(C)NCC(O)COc1c(Br)c(Br)c(Br)c2c1OC(C)(C)C2` (stereo not given), for which the GI50 is 1.73 µM in [1]; 1.61 µM in experiment [9]; 1.55 µM in experiment [2]; 1.81 µM in experiment [10]; 2.02 µM in experiment [6]; 1.89 µM in experiment [7]. Further, in experiment [8], the GI50 is 1.53 µM. The TGI in [1] was found to be 3.38 µM; in [9] it was 3.02 µM; in experiment [2], 3.2 µM; in experiment [10], 3.66 µM; in experiment [6], 3.96 µM; in [7], 3.4 µM. The TGI in [8] was 3.1 µM.

As for `C=C1C(=O)O[C@H]2[C@H]1CC/C(COC(=O)N[C@H]1C[C@H](O[C@H]3C[C@](O)(C(=O)CO)Cc4c(O)c5c(c(O)c43)C(=O)c3c(OC)cccc3C5=O)O[C@@H](C)[C@H]1O)=C\CC[C@@]1(C)O[C@@H]21`, the GI50 was 6.72 µM in experiment [1]; 23.3 µM in experiment [9]; 1.75 µM in [2]; 6.91 µM in [3]; 6.99 µM in experiment [4]; 11.8 µM in experiment [5]. Further, the results for the GI50 in experiment [10], in experiment [6] and in [7] were 8.36 µM, 6.31 µM and greater than 50 µM, respectively. For the same molecule, the TGI in experiment [1] is 24.6 µM; in experiment [9], greater than 50 µM; in [2] it was 6.98 µM; in [3], 18 µM; in experiment [4], 18 µM; in [5], 28.7 µM. The TGI is 22.5 µM in experiment [10], 22.2 µM in experiment [6] and greater than 50 µM in experiment [7].

As to `NC(=O)c1cccnc1`, the GI50 in experiment [1], in experiment [9], in experiment [2], in experiment [3], in experiment [4] and in [10] was greater than 100 µM each time. The GI50 in experiment [6], in experiment [7] and in [8] was greater than 100 µM in each case. Further, the TGI in experiment [1], in [9], in experiment [2], in experiment [3], in experiment [4] and in experiment [10] was greater than 100 µM each time. Also, the TGI in experiment [6], in experiment [7] and in experiment [8] was greater than 100 µM in each case.

Take `CSc1ncnc2c1ncn2CC(=O)C1CCC2C3CCC4=CC(=O)CCC4(C)C3CCC12C` (stereo not given): the TGI in experiment [1] is greater than 100 µM; in experiment [9], 68.3 µM; in experiment [2] it was 14.4 µM; in experiment [3] it was greater than 100 µM; in [4] it was greater than 40.7 µM; in experiment [10] it was 8.88 µM. In addition, the TGI is 10 µM in experiment [6], greater than 77.1 µM in experiment [7] and 0.926 µM in experiment [8].

For the molecule `COc1ccc(Nc2nc(Nc3cc(C)[nH]n3)c3cc(OC)c(OC)cc3n2)cc1`, the GI50 in experiment [1] was 1.35 µM; in [9] it was 1.48 µM; in experiment [3], 2 µM; in experiment [5] it was 1.32 µM; in experiment [10], 1.31 µM; in experiment [6] it was 1.23 µM. In addition, the GI50 in [7] was 0.685 µM. Moreover, the TGI came to 2.92 µM in [1]; 2.94 µM in experiment [9]; 3.74 µM in experiment [3]; 2.9 µM in [5]; 2.89 µM in [10]; 2.58 µM in experiment [6]. The TGI in [7] worked out at 2.45 µM.

Consider `CCCC1(CN2c3ccccc3Sc3ccc(Cl)cc32)CCN(CC)C1` (stereo not given), for which the GI50 in experiment [1] is 1.86 µM; in experiment [9], 1.77 µM; in experiment [2], 1.64 µM; in experiment [3], 1.71 µM; in experiment [4], 1.78 µM; in experiment [5], 1.68 µM. In addition, the figures for the GI50 in experiment [10], in experiment [6] and in experiment [7] were 1.86 µM, 1.79 µM and 1.88 µM, respectively. For the same molecule, the TGI in experiment [1] turned out to be 3.88 µM; in experiment [9], 3.55 µM; in [2], 3.3 µM; in experiment [3], 3.48 µM; in experiment [4] it was 3.35 µM; in experiment [5], 3.27 µM. Further, the results for the TGI in experiment [10], in experiment [6] and in [7] were 3.49 µM, 3.47 µM and 3.84 µM, respectively.

In the case of `Cn1cc(-c2cc(-c3cn(C)c4ccc(Cl)cc34)[nH]n2)c2cc(Cl)ccc21`, the GI50 in [1] was 5.29 µM; in experiment [9], 3.15 µM; in experiment [2], 2.22 µM; in experiment [3], 3.11 µM; in experiment [4], 4.03 µM; in experiment [5], 1.71 µM. Also, the values for the GI50 in experiment [10], in experiment [7] and in experiment [8] were 2.15 µM, 3.01 µM and 4.45 µM, respectively. The TGI in [1] worked out at 44.4 µM; in [9], 15 µM; in [2], 5.35 µM; in [3], 13 µM; in experiment [4], 19.8 µM; in experiment [5] it was 3.84 µM. Also, the results for the TGI in [10], in experiment [7] and in [8] were 5.3 µM, 15.1 µM and 18.1 µM, respectively.

As for `CO[C@H]1/C=C/O[C@@]2(C)Oc3c(C)c(O)c4c(O)c(c(/C=N/N5CCN(C)CC5)c(O)c4c3C2=O)NC(=O)/C(C)=C\C=C\[C@H](C)[C@H](O)[C@@H](C)[C@@H](O)[C@@H](C)[C@H](OC(C)=O)[C@@H]1C`, the TGI in experiment [9], in experiment [2], in experiment [3], in [4], in experiment [5] and in experiment [10] was greater than 100 µM throughout. The molecule also showed a TGI in experiment [6] greater than 100 µM.

For the molecule `CC(/C=C/C(O)=C1/C(=O)CNC1=O)=C\[C@@H](C)[C@H]1O[C@@]2(C)O[C@H](C(=O)[C@@H]3O[C@@]32C)[C@@H]1C`, the TGI in experiment [1] is 43.9 µM; in experiment [9] it was 39.2 µM; in experiment [2] it was 43.6 µM; in experiment [3], 57.5 µM; in experiment [4], 46.4 µM; in [10] it was greater than 100 µM. The TGI amounted to 83.1 µM in experiment [6], 49.6 µM in [7] and 80.6 µM in experiment [8].

For `COc1ccc(O)c(C(=O)CCC(=O)O)c1`, the TGI in [1], in experiment [9], in [2], in [3], in experiment [4] and in [5] was greater than 100 µM each time. For the same molecule, the values for the TGI in experiment [10], in [7] and in experiment [8] were greater than 10 µM, greater than 100 µM and greater than 100 µM, respectively.

`CCOc1ccc(N=C(NC(=O)c2ccccc2)SC)cc1`: the TGI in [1], in experiment [9], in experiment [2], in experiment [3], in [4] and in experiment [5] was greater than 100 µM each time. The TGI in experiment [10], in experiment [7] and in experiment [8] was greater than 100 µM in each case.

Regarding `COc1cc(C2=NN(C(C)=O)C(c3cc(OC)c(OC)c(OC)c3)C2)ccc1O` (stereo not given), the GI50 is 0.539 µM in [1]; 1.13 µM in experiment [9]; 0.274 µM in experiment [2]; 6.74 µM in experiment [3]; 0.619 µM in experiment [4]; 0.539 µM in [5]. The figures for the GI50 in experiment [10], in experiment [7] and in [8] were 0.342 µM, 0.392 µM and 0.182 µM, respectively. Also, the TGI in experiment [1] was greater than 100 µM; in experiment [9], greater than 100 µM; in experiment [2], 1.05 µM; in [3], greater than 100 µM; in experiment [4], greater than 100 µM; in experiment [5] it was greater than 100 µM. For the same molecule, the TGI in experiment [10] was greater than 100 µM; in [7], greater than 100 µM; in [8], 0.514 µM.

(Values after PubChem BioAssay (NCI).)
